“And” between values parts separate entries of the source, which are not always exact repeats. Identical values can stand only once.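 48-hour exposure; five concentrations; linearly interpolated endpoints. GI50: concentration for 50% inhibition of growth. Definition used: TGI = concentration required for complete inhibition of growth.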
How the values were obtained:
Assay in all cases: NCI-60 cell line screen, 48 h
NCI-H23 lung = test system: NCI-H23 lung
LOX IMVI melanoma = test system: LOX IMVI melanoma
CCRF-CEM leukemia = test system: CCRF-CEM leukemia
OVCAR-3 ovarian = test system: OVCAR-3 ovarian
HCT-116 colon = test system: HCT-116 colon
KM12 colon = test system: KM12 colon
COLO 205 colon = test system: COLO 205 colon
MOLT-4 leukemia = test system: MOLT-4 leukemia
K-562 leukemia = test system: K-562 leukemia
DU-145 prostate = test system: DU-145 prostate

Compound `CC(=O)[CH-]C(=O)c1ccccc1.CC(=O)[CH-]C(=O)c1ccccc1.CC[C@H](/C=C/C(C)[C@H]1CCC2[C@@H]3CC=C4C[C@@H]([O-])CC[C@]4(C)C3CC[C@@]21C)C(C)C.CC[O-].[Ti+4]` (stereo partly drawn) has a GI50 (NCI-H23 lung) greater than 100 µM, a TGI (NCI-H23 lung) greater than 100 µM and a GI50 (LOX IMVI melanoma) greater than 100 µM. It also gave a TGI (LOX IMVI melanoma) greater than 100 µM, a GI50 (CCRF-CEM leukemia) of 61.4 µM and a TGI (CCRF-CEM leukemia) greater than 100 µM. It also gave a GI50 (OVCAR-3 ovarian) greater than 100 µM, a TGI (OVCAR-3 ovarian) greater than 100 µM and a GI50 (HCT-116 colon) greater than 100 µM. For the same compound, the TGI (HCT-116 colon) was greater than 100 µM, the GI50 (KM12 colon) was greater than 100 µM and the TGI (KM12 colon) was greater than 100 µM. It also gave a GI50 (COLO 205 colon) greater than 100 µM, a TGI (COLO 205 colon) greater than 100 µM and a GI50 (MOLT-4 leukemia) greater than 100 µM. It also gave a TGI (MOLT-4 leukemia) greater than 100 µM, a GI50 (K-562 leukemia) greater than 100 µM and a TGI (K-562 leukemia) greater than 100 µM.

Work on `Cc1cc(=O)n2c3c(c4c(cc13)c(CO)cc(=O)n4C)OC2` yielded a TGI (NCI-H23 lung) of 48.1 µM, a TGI (LOX IMVI melanoma) of 21.1 µM and a TGI (CCRF-CEM leukemia) of 56.8 µM. It also gave a TGI (OVCAR-3 ovarian) of 40.1 µM, a TGI (HCT-116 colon) of 15.8 µM and a TGI (KM12 colon) greater than 100 µM. The TGI (COLO 205 colon) was greater than 100 µM and the TGI (K-562 leukemia) was 97.7 µM.

Work on `COC(=O)NN1C(C)=C(C(=O)OC)C2(C#N)C(C(=O)OC)=C(C)N(NC(=O)OC)C12N` (stereo not drawn) yielded a TGI (NCI-H23 lung) greater than 100 µM, a TGI (LOX IMVI melanoma) greater than 100 µM and a TGI (CCRF-CEM leukemia) greater than 100 µM. For the same compound, the TGI (HCT-116 colon) was greater than 100 µM, the TGI (COLO 205 colon) was greater than 100 µM and the TGI (MOLT-4 leukemia) was greater than 100 µM. For the same compound, the TGI (K-562 leukemia) was greater than 100 µM.

For `Cc1ccc(NC(=O)CC/C(CC(=O)C(C)(C)C)=N/NC(=O)C[N+](C)(C)C)cc1C`, the TGI (NCI-H23 lung) was greater than 100 µM, the TGI (LOX IMVI melanoma) was greater than 100 µM and the TGI (CCRF-CEM leukemia) was greater than 100 µM. It also gave a TGI (OVCAR-3 ovarian) greater than 100 µM, a TGI (HCT-116 colon) greater than 100 µM and a TGI (KM12 colon) greater than 100 µM. It also gave a TGI (COLO 205 colon) greater than 100 µM, a TGI (MOLT-4 leukemia) greater than 100 µM and a TGI (K-562 leukemia) greater than 100 µM.

Compound `CCN(CC)CCOc1ccc(/C=C2\C[C@H]3[C@H]4CC=C5C[C@@H](O)CC[C@]5(C)[C@H]4CC[C@]3(C)[C@H]2O)cc1OC` has a GI50 (DU-145 prostate) of 3.86 µM, a TGI (DU-145 prostate) of 10.2 µM and a GI50 (NCI-H23 lung) of 11.2 µM. It also gave a TGI (NCI-H23 lung) of 23.9 µM, a GI50 (LOX IMVI melanoma) of 7.7 µM and a TGI (LOX IMVI melanoma) of 15.3 µM. The GI50 (OVCAR-3 ovarian) was 7.96 µM, the TGI (OVCAR-3 ovarian) was 17.8 µM and the GI50 (HCT-116 colon) was 14.6 µM. The TGI (HCT-116 colon) was greater than 50 µM, the GI50 (KM12 colon) was 8.1 µM and the TGI (KM12 colon) was 17 µM. For the same compound, the GI50 (COLO 205 colon) was 12.8 µM, the TGI (COLO 205 colon) was greater than 50 µM and the GI50 (MOLT-4 leukemia) was 10.5 µM. It also gave a TGI (MOLT-4 leukemia) greater than 50 µM, a GI50 (K-562 leukemia) of 8.09 µM and a TGI (K-562 leukemia) of 32 µM.

`C=C(C)C1CC=C(C)CC1` (stereo not drawn) was tested, and the GI50 (NCI-H23 lung) was greater than 100 µM, the TGI (NCI-H23 lung) was > 100 µM and 1690 µM and the GI50 (LOX IMVI melanoma) was greater than 100 µM. For the same compound, the TGI (LOX IMVI melanoma) was > 100 µM and 1620 µM, the GI50 (CCRF-CEM leukemia) was greater than 100 µM and the TGI (CCRF-CEM leukemia) was > 100 µM and 1670 µM. For the same compound, the GI50 (OVCAR-3 ovarian) was greater than 100 µM, the TGI (OVCAR-3 ovarian) was > 100 µM and 1590 µM and the GI50 (HCT-116 colon) was greater than 100 µM. The TGI (HCT-116 colon) was > 100 µM and 1620 µM, the GI50 (KM12 colon) was greater than 100 µM and the TGI (KM12 colon) was > 100 µM and 1830 µM. For the same compound, the GI50 (COLO 205 colon) was greater than 100 µM, the TGI (COLO 205 colon) was > 100 µM and 1760 µM and the GI50 (MOLT-4 leukemia) was greater than 100 µM. The TGI (MOLT-4 leukemia) was > 100 µM and 2180 µM, the GI50 (K-562 leukemia) was greater than 100 µM and the TGI (K-562 leukemia) was > 100 µM and 1720 µM.

Work on `COC(=O)C1=Cc2cc(OC)c(OC)cc2[C@H](c2ccc(OC)c(OC)c2)C1C(=O)OC` (stereo partly drawn) yielded a TGI (NCI-H23 lung) greater than 100 µM, a TGI (LOX IMVI melanoma) greater than 100 µM and a TGI (CCRF-CEM leukemia) greater than 100 µM. It also gave a TGI (OVCAR-3 ovarian) greater than 100 µM, a TGI (HCT-116 colon) greater than 100 µM and a TGI (KM12 colon) greater than 100 µM. For the same compound, the TGI (COLO 205 colon) was greater than 100 µM, the TGI (MOLT-4 leukemia) was greater than 100 µM and the TGI (K-562 leukemia) was greater than 100 µM.

Work on `COc1cccc(NC(=O)C(C)(C)C)c1SSc1c(NC(=O)C(C)(C)C)cccc1OC` yielded a TGI (NCI-H23 lung) greater than 100 µM, a TGI (LOX IMVI melanoma) of 30.4 µM and a TGI (CCRF-CEM leukemia) greater than 89.5 µM. For the same compound, the TGI (OVCAR-3 ovarian) was greater than 100 µM, the TGI (HCT-116 colon) was 42.8 µM and the TGI (KM12 colon) was greater than 95.5 µM. The TGI (COLO 205 colon) was 69.9 µM, the TGI (MOLT-4 leukemia) was greater than 70.6 µM and the TGI (K-562 leukemia) was greater than 82.5 µM.

Work on `NC1=NN(c2ccccc2)C(=O)C1/C(=N\NC(=O)c1cc2ccccc2cc1O)C(=O)Nc1cccc(C(F)(F)F)c1` (stereo not drawn) yielded a TGI (NCI-H23 lung) greater than 100 µM, a TGI (LOX IMVI melanoma) greater than 100 µM and a TGI (CCRF-CEM leukemia) of 34.1 µM. It also gave a TGI (OVCAR-3 ovarian) greater than 100 µM, a TGI (HCT-116 colon) of 94.9 µM and a TGI (KM12 colon) greater than 100 µM. It also gave a TGI (COLO 205 colon) greater than 100 µM and a TGI (MOLT-4 leukemia) of 65.9 µM.

For `Cn1c(=O)c2ccc(-c3ccc(Br)cc3)nc2n(C)c1=O`, the TGI (NCI-H23 lung) was greater than 100 µM, the TGI (LOX IMVI melanoma) was greater than 100 µM and the TGI (CCRF-CEM leukemia) was greater than 100 µM. For the same compound, the TGI (OVCAR-3 ovarian) was greater than 100 µM, the TGI (HCT-116 colon) was greater than 100 µM and the TGI (KM12 colon) was greater than 100 µM. The TGI (COLO 205 colon) was greater than 100 µM, the TGI (MOLT-4 leukemia) was greater than 100 µM and the TGI (K-562 leukemia) was greater than 100 µM.

Compound `N#Cc1cc([N+](=O)[O-])ccc1NC(=O)C(F)(F)F` has a TGI (NCI-H23 lung) greater than 100 µM, a TGI (LOX IMVI melanoma) greater than 49.7 µM and a TGI (CCRF-CEM leukemia) greater than 100 µM. It also gave a TGI (OVCAR-3 ovarian) greater than 100 µM, a TGI (HCT-116 colon) greater than 61.5 µM and a TGI (KM12 colon) greater than 100 µM. The TGI (COLO 205 colon) was 44.6 µM, the TGI (MOLT-4 leukemia) was greater than 100 µM and the TGI (K-562 leukemia) was greater than 100 µM.

Compound `COC(=O)C[CH2][Ge]([CH3])([CH3])[S]c1ccccc1` has a GI50 (NCI-H23 lung) of 43.3 µM, a TGI (NCI-H23 lung) greater than 100 µM and a GI50 (LOX IMVI melanoma) of 12.5 µM. For the same compound, the TGI (LOX IMVI melanoma) was 26.2 µM, the GI50 (CCRF-CEM leukemia) was 5.27 µM and the TGI (CCRF-CEM leukemia) was 24.3 µM. The GI50 (OVCAR-3 ovarian) was 29.9 µM, the TGI (OVCAR-3 ovarian) was greater than 100 µM and the GI50 (HCT-116 colon) was 33.4 µM. It also gave a TGI (HCT-116 colon) greater than 100 µM, a GI50 (KM12 colon) of 36 µM and a TGI (KM12 colon) greater than 100 µM. It also gave a GI50 (COLO 205 colon) of 30.4 µM, a TGI (COLO 205 colon) of 69.9 µM and a GI50 (MOLT-4 leukemia) of 8.31 µM. For the same compound, the TGI (MOLT-4 leukemia) was 33.5 µM, the GI50 (K-562 leukemia) was 34.8 µM and the TGI (K-562 leukemia) was greater than 100 µM.

`CSc1nc2c(nc(N)n2C2OC(COC(C)=O)C(OC(C)=O)C(OC(C)=O)C2OC(C)=O)c(=O)n1C` (stereo not drawn) showed a TGI (NCI-H23 lung) greater than 100 µM, a TGI (LOX IMVI melanoma) greater than 100 µM and a TGI (CCRF-CEM leukemia) greater than 100 µM. The TGI (OVCAR-3 ovarian) was greater than 100 µM, the TGI (HCT-116 colon) was greater than 100 µM and the TGI (KM12 colon) was greater than 100 µM. The TGI (COLO 205 colon) was greater than 100 µM, the TGI (MOLT-4 leukemia) was greater than 100 µM and the TGI (K-562 leukemia) was greater than 100 µM.

For `CC(=O)[CH-]C(=O)c1ccccc1.CC(=O)[CH-]C(=O)c1ccccc1.CC1(C)OCC(C2OC3OC(C)(C)OC3C2[O-])O1.CC1(C)OCC(C2OC3OC(C)(C)OC3C2[O-])O1.[Ti+4]` (stereo not drawn), the GI50 (NCI-H23 lung) was 18.2 µM, the TGI (NCI-H23 lung) was 38.3 µM and the GI50 (LOX IMVI melanoma) was 13.7 µM. It also gave a TGI (LOX IMVI melanoma) of 34.2 µM, a GI50 (CCRF-CEM leukemia) of 3.49 µM and a TGI (CCRF-CEM leukemia) of 39.8 µM. For the same compound, the GI50 (HCT-116 colon) was 14.4 µM, the TGI (HCT-116 colon) was 32.1 µM and the GI50 (KM12 colon) was 13.2 µM. For the same compound, the TGI (KM12 colon) was 42.8 µM, the GI50 (MOLT-4 leukemia) was 7.39 µM and the TGI (MOLT-4 leukemia) was greater than 100 µM. The GI50 (K-562 leukemia) was 14.2 µM and the TGI (K-562 leukemia) was 71.4 µM.
